This passage reports IC50 results from US10301317B2, “Inhibitors of ERK and methods of use” (Kura Oncology, Inc., priority 2013, dated 2019).

Some results are limits rather than exact numbers.

In the first experiment the test system is phospho-p90 RSK (RSK1 Thr359/Ser363) in A375 (Braf V600E) cells. Kind of experiment: Phospho-p90 RSK ELISA using A375 (Braf V600E) cells. The format is cell-based. As to conditions: Homo sapiens, A-375, 2 hours compound treatment, read-out: Cellular Phospho-p90RSK IC50. A general note: An ELISA detects its analyte on a solid surface through an enzyme-linked reagent.
For `COc1ccc(-c2n[nH]c3cc4c(cc23)CN([C@@H]2CCCN(Cc3ccccc3)C2)C(=O)N4)cn1` [Example 272], the IC50 was at most 250 nM.
As for `COc1ccc(-c2n[nH]c3cc4c(cc23)CN([C@@H]2CCCN(Cc3ccc(F)cc3F)C2)C(=O)N4)cn1` [Example 273], the IC50 is at most 250 nM.
Still for that read-out and setting: the result for `Cc1ccc(-c2n[nH]c3cc4c(cc23)CN([C@@H]2CCCN(Cc3ccccc3)C2)C(=O)N4)cn1` [Example 275] reads at most 250 nM; that for `COc1ncc(-c2n[nH]c3cc4c(cc23)CN([C@@H]2CCCN(Cc3ccc(F)cc3F)C2)C(=O)N4)cn1` [Example 280], at most 250 nM; that for `Cn1cc(-c2n[nH]c3cc4c(cc23)CN([C@@H]2CCCN(Cc3ccc(F)cc3F)C2)C(=O)N4)cn1` [Example 281], at most 250 nM.
In the case of `Cc1ccc(-c2n[nH]c3cc4c(cc23)CN([C@@H]2CCCN(Cc3ccc(F)cc3F)C2)C(=O)N4)cn1` [Example 284], the IC50 is at most 250 nM.
On the same count and under the same terms, as for `Cn1cc(-c2n[nH]c3cc4c(cc23)CN([C@@H]2CCCN(Cc3ccccc3)C2)C(=O)N4)cn1` [Example 285], the figure is at most 250 nM; as for `Cc1cc(-c2n[nH]c3cc4c(cc23)CN([C@@H]2CCCN(Cc3sccc3F)C2)C(=O)N4)ccn1` [Example 291], at most 250 nM.
Turning to `Cc1ncc(-c2n[nH]c3cc4c(cc23)CN([C@@H]2CCCN(Cc3ccccc3)C2)C(=O)N4)cn1` [Example 292], the IC50 is at most 250 nM.
On the same count and under the same terms, the result for `Cc1ncc(-c2n[nH]c3cc4c(cc23)CN([C@@H]2CCCN(Cc3ccc(F)cc3F)C2)C(=O)N4)cn1` [Example 293] reads at most 250 nM; that for `Cc1cc(-c2n[nH]c3cc4c(cc23)CN([C@H]2CCN(Cc3ccccc3)C2)C(=O)N4)ccn1` [Example 301], at most 250 nM; that for `CC(c1ccccc1)c1cc2cc3c(-c4ccnc(N5CCN(C)CC5)c4)n[nH]c3cc2[nH]c1=O` (centres unmarked) [Example 318], at most 250 nM.
Turning to `COc1ncc(-c2n[nH]c3cc4c(cc23)CN(C2CN(Cc3ccccc3)CC(F)(F)C2)C(=O)N4)cn1` (centres unmarked) [Example 320], the IC50 was at most 250 nM.
`CC(c1ccccc1)c1cc2cc3c(-c4ccnnc4)n[nH]c3cc2[nH]c1=O` (centres unmarked) [Example 323]: the IC50 was at most 250 nM.
As to `CC(c1ccccc1)c1cc2cc3c(-c4ccc(N5CCOCC5)nc4)n[nH]c3cc2[nH]c1=O` (centres unmarked) [Example 324], the IC50 was at most 250 nM.
Turning to `CC(c1ccccc1)c1cc2cc3c(-c4ccnc(N5CCOCC5)c4)n[nH]c3cc2[nH]c1=O` (centres unmarked) [Example 325], the IC50 is at most 250 nM.
Same read-out and setting: as for `CC(c1ccccc1)c1cc2cc3c(-c4ccncc4)n[nH]c3cc2[nH]c1=O` (centres unmarked) [Example 326], the figure is at most 250 nM.
Take `Cc1cc(-c2n[nH]c3cc4[nH]c(=O)c(C(CO)c5ccccc5)cc4cc23)ccn1` (centres unmarked) [Example 328]: the IC50 was at most 250 nM.
The same measure, in the same setting: as for `CC(c1ccccc1)c1cc2cc3c(-c4cccnc4)n[nH]c3cc2[nH]c1=O` (centres unmarked) [Example 330], the figure is at most 250 nM.
Same read-out and setting: as for `Cc1cc(-c2n[nH]c3cc4c(cc23)CN([C@@H]2CN(CC(F)(F)F)C[C@H]2C(F)(F)F)C(=O)N4)ccn1` [Example 331], the figure is 250 to 1000 nM; as for `Cc1cc(-c2n[nH]c3cc4[nH]c(=O)c(C5CCCN(Cc6ccccc6)C5)cc4cc23)ccn1` (centres unmarked) [Example 332], at most 250 nM.
On the same count and under the same terms, as for `CC(c1ccccc1)c1cc2cc3c(-c4cnn(C)c4)n[nH]c3cc2[nH]c1=O` (centres unmarked) [Example 333], the figure is at most 250 nM.
Regarding `CC(c1ccccc1)c1cc2cc3c(NC4CCOCC4)n[nH]c3cc2[nH]c1=O` (centres unmarked) [Example 338], the IC50 was at most 250 nM.
Same read-out and setting: as for `C[C@H](c1ccccc1)c1cc2cc3c(NC4CCOCC4)n[nH]c3cc2[nH]c1=O` [Example 357], the figure is at most 250 nM; as for `COc1ncc(-c2n[nH]c3cc4[nH]c(=O)c(C5CCCN(Cc6ccccc6)C5)cc4cc23)cn1` (centres unmarked) [Example 364], at most 250 nM.

The subject of another experiment is A375 cells. Briefly: Tumor cell line proliferation assay (CellTiter Glo), A375. The format is cell-based. As to conditions: Homo sapiens, A-375, 96 h, read-out: A375 (V599E) Cell Proliferation IC50. On the technique in general: Cellular ATP, detected with luciferase, serves as a proxy for viable cell number.
Consider `COc1ccc(-c2n[nH]c3cc4c(cc23)CN([C@@H]2CCCN(Cc3ccccc3)C2)C(=O)N4)cn1` [Example 272], for which the IC50 was at most 250 nM.
The same measure, in the same setting: as for `COc1ccc(-c2n[nH]c3cc4c(cc23)CN([C@@H]2CCCN(Cc3ccc(F)cc3F)C2)C(=O)N4)cn1` [Example 273], the figure is at most 250 nM; as for `Cc1ccc(-c2n[nH]c3cc4c(cc23)CN([C@@H]2CCCN(Cc3ccccc3)C2)C(=O)N4)cn1` [Example 275], at most 250 nM; as for `COc1ncc(-c2n[nH]c3cc4c(cc23)CN([C@@H]2CCCN(Cc3ccc(F)cc3F)C2)C(=O)N4)cn1` [Example 280], at most 250 nM.
On the same count and under the same terms, as for `Cn1cc(-c2n[nH]c3cc4c(cc23)CN([C@@H]2CCCN(Cc3ccc(F)cc3F)C2)C(=O)N4)cn1` [Example 281], the figure is at most 250 nM.
Still for that read-out and setting: as for `Cc1ccc(-c2n[nH]c3cc4c(cc23)CN([C@@H]2CCCN(Cc3ccc(F)cc3F)C2)C(=O)N4)cn1` [Example 284], the figure is at most 250 nM; as for `Cn1cc(-c2n[nH]c3cc4c(cc23)CN([C@@H]2CCCN(Cc3ccccc3)C2)C(=O)N4)cn1` [Example 285], at most 250 nM.
With `Cc1cc(-c2n[nH]c3cc4c(cc23)CN([C@@H]2CCCN(Cc3sccc3F)C2)C(=O)N4)ccn1` [Example 291], the IC50 was at most 250 nM.
`Cc1ncc(-c2n[nH]c3cc4c(cc23)CN([C@@H]2CCCN(Cc3ccccc3)C2)C(=O)N4)cn1` [Example 292]: the IC50 is at most 250 nM.
For `Cc1ncc(-c2n[nH]c3cc4c(cc23)CN([C@@H]2CCCN(Cc3ccc(F)cc3F)C2)C(=O)N4)cn1` [Example 293], the IC50 was at most 250 nM.
On the same count and under the same terms, as for `Cc1cc(-c2n[nH]c3cc4c(cc23)CN([C@H]2CCN(Cc3ccccc3)C2)C(=O)N4)ccn1` [Example 301], the figure is 250 to 1000 nM; as for `CC(c1ccccc1)c1cc2cc3c(-c4ccnc(N5CCN(C)CC5)c4)n[nH]c3cc2[nH]c1=O` (centres unmarked) [Example 318], at most 250 nM; as for `COc1ncc(-c2n[nH]c3cc4c(cc23)CN(C2CN(Cc3ccccc3)CC(F)(F)C2)C(=O)N4)cn1` (centres unmarked) [Example 320], 250 to 1000 nM.
As to `CC(c1ccccc1)c1cc2cc3c(-c4ccnnc4)n[nH]c3cc2[nH]c1=O` (centres unmarked) [Example 323], the IC50 lay within 250 to 1000 nM.
Same read-out and setting: as for `CC(c1ccccc1)c1cc2cc3c(-c4ccc(N5CCOCC5)nc4)n[nH]c3cc2[nH]c1=O` (centres unmarked) [Example 324], the figure is at most 250 nM; as for `CC(c1ccccc1)c1cc2cc3c(-c4ccnc(N5CCOCC5)c4)n[nH]c3cc2[nH]c1=O` (centres unmarked) [Example 325], at most 250 nM; as for `CC(c1ccccc1)c1cc2cc3c(-c4ccncc4)n[nH]c3cc2[nH]c1=O` (centres unmarked) [Example 326], at most 250 nM.
Same read-out and setting: as for `Cc1cc(-c2n[nH]c3cc4[nH]c(=O)c(C(CO)c5ccccc5)cc4cc23)ccn1` (centres unmarked) [Example 328], the figure is 250 to 1000 nM.
Same read-out and setting: the result for `CC(c1ccccc1)c1cc2cc3c(-c4cccnc4)n[nH]c3cc2[nH]c1=O` (centres unmarked) [Example 330] reads 250 to 1000 nM; that for `Cc1cc(-c2n[nH]c3cc4c(cc23)CN([C@@H]2CN(CC(F)(F)F)C[C@H]2C(F)(F)F)C(=O)N4)ccn1` [Example 331], 250 to 1000 nM; that for `Cc1cc(-c2n[nH]c3cc4[nH]c(=O)c(C5CCCN(Cc6ccccc6)C5)cc4cc23)ccn1` (centres unmarked) [Example 332], at most 250 nM.
For the compound `CC(c1ccccc1)c1cc2cc3c(-c4cnn(C)c4)n[nH]c3cc2[nH]c1=O` (centres unmarked) [Example 333], the IC50 is at most 250 nM.
On the same count and under the same terms, the result for `CC(c1ccccc1)c1cc2cc3c(NC4CCOCC4)n[nH]c3cc2[nH]c1=O` (centres unmarked) [Example 338] reads at most 250 nM; that for `C[C@H](c1ccccc1)c1cc2cc3c(NC4CCOCC4)n[nH]c3cc2[nH]c1=O` [Example 357], at most 250 nM.
Same read-out and setting: as for `COc1ncc(-c2n[nH]c3cc4[nH]c(=O)c(C5CCCN(Cc6ccccc6)C5)cc4cc23)cn1` (centres unmarked) [Example 364], the figure is at most 250 nM.
